Results as given in ChEMBL document CHEMBL1158275, “Isolation of two new antiinflammatory biflavanoids from Sarcophyte piriei” (J Nat Prod, 1996).

Assays:
[1] = Inhibition of prostaglandin synthesis in bovine seminal vesicle microsomes using [14C]arachidonic acid; format: functional, Bos taurus, Microsome
[2] = system: Neutrophil; assay: Inhibition of PAF-induced exocytosis in neutrophil by spectrophotometer; format: functional, cell-based

Row | SMILES | IC50 [1] [µg/mL] | IC50 ([1]; read-out: IC50) [µM] | IC50 [2] [µM]
1 | CC(=O)Oc1ccccc1C(=O)O [ASPIRIN] | 200 |  | 
2 | O=C1C[C@H](c2ccc(O)c(O)c2)Oc2c1c(O)cc1c2[C@@H]2C[C@@](c3ccc(O)c(O)c3)(Oc3cc(O[C@@H]4O[C@H](CO)[C@@H](O)[C@H](O)[C@H]4O)cc(O)c32)O1 [DIINSININOL] |  | 9.2 | 49
3 | O=C1C[C@H](c2ccc(O)cc2)Oc2c1c(O)cc1c2[C@@H]2C[C@@](c3ccc(O)c(O)c3)(Oc3cc(O[C@@H]4O[C@H](CO)[C@@H](O)[C@H](O)[C@H]4O)cc(O)c32)O1 [DIINSININ] |  | 13.1 | 39
4 | C[C@@H]1C(=O)O[C@H]2[C@H](O)[C@@]34[C@H]5C[C@@H](C(C)(C)C)[C@]36[C@@H](OC(=O)[C@@H]6O)O[C@@]4(C(=O)O5)[C@@]12O [GINKOLIDE B] |  |  | 80
5 | COc1ccc2c(c1)c(CC(=O)O)c(C)n2C(=O)c1ccc(Cl)cc1 [INDOMETHACIN] |  | 0.56 | 
